Format in all cases: in vivo
Data set [1] has as its system ORYZA SATIVA, L. TEBONNET
Description: Rice tolerance to post-transplant applications under flooded paddy conditions, ORYSAT (Rice, Tebonnet). As to conditions: post-transplant rice, 3-4 weeks after treatment. Put shortly:
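Visual 0-9 rating against untreated control (stand, vigor, malformation, size, chlorosis, overall appearance), taken 3-4 weeks after treatment. Flooded silt loam, water at 1.5-3 cm; two 10-day-old seedlings per pot; compound applied to flooded soil surface 3 days post-transplant at ~0.5-0.063 kg/ha.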

A further data set concerns […], PRESL. Description: Preemergence weed control under flooded paddy conditions, MOOVA (Monochoria). Conditions: preemergence, 3-4 weeks after treatment. Put shortly: (§1)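 Visual 0-9 score (stand, vigor, malformation, size, chlorosis, appearance vs untreated control) taken 3-4 wk after treatment. Test compounds were added into flood water (1.5-3 cm over silt loam) as 50/50 v/v aqueous/acetone, equivalent to about 0.5-0.063 kg/ha a.i.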

The subject of data set [2] is CHENOPODIUM ALBUM, L. The data set can be described thus: Postemergence herbicidal evaluation, CHEAL (Lambsquarters, Common). A digest of the protocol:
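Postemergence herbicidal activity on Chenopodium album was tested by spraying two-week-old seedlings grown in jiffy flats with compound in acetone/water (50/50) plus 0.5% TWEEN®20, using a 40 psi nozzle. Four to five weeks after treatment, stand, vigor, malformation, size, chlorosis and overall appearance were scored 0-9 relative to controls, with repeat tests averaged.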

Data set [3] concerns CYPERUS SEROTINUS, ROTTB. The data set can be described thus: Preemergence weed control under flooded paddy conditions, CYPSE (Flatsedge). Conditions: preemergence, 3-4 weeks after treatment. A digest of the protocol:
as §1

Another data set deals with SAGITTARIA PYGMAEA, L. The data set can be described thus: Preemergence weed control under flooded paddy conditions, SAGPY (Arrowhead (Pygmaea)). Conditions: preemergence, 3-4 weeks after treatment. A digest of the protocol:
as §1

The subject of data set [4] is ORYZA SATIVA, L. TEBONNET
Description: Preemergence herbicidal evaluation, ORYSAT (Rice, Tebonnet). As to conditions: rated four to five weeks after treatment. The source says: Results of herbicide evaluation are expressed on a rating scale (0-9). The scale is based upon a visual observation of plant stand, vigor, malformation, size, chlorosis and overall plant appearance as compared with a control.
The preemergence herbicidal activity of the test compounds of the present invention is exemplified by the following tests in which the seeds of a variety of monocotyledonous and dicotyledonous plants are separately mixed with potting soil and planted on top of approximately one inch of soil in separate pint cups. […] The treated cups are then placed on greenhouse benches, watered and cared for in accordance with conventional greenhouse procedures. From four to five weeks after treatment, the tests are terminated and each cup is examined and rated according to the rating system provided in Example 40.
The compounds evaluated are reported by compound number given in Example 40.

For data set [5], the system named is CHENOPODIUM ALBUM, L. Description: Preemergence herbicidal evaluation, CHEAL (Lambsquarters, Common). As to conditions: rated four to five weeks after treatment. Put shortly:
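Injury scored visually (0–9; stand, vigor, malformation, size, chlorosis) versus untreated control, four to five weeks post-treatment. Application: aqueous acetone spray onto freshly planted soil cups, equivalent to about 0.125 to 0.50 kg/ha, plants then kept under standard greenhouse care.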

Results on one compound are retold here after patent EP0745595A1, “3-(3-Aryloxyphenyl)-1-(substituted methyl)-s-triazine-2,4,6-oxo or thiotrione herbicidal agents” (American Cyanamid Company, priority 1995, dated 1996).

For the compound `COC(=O)Cn1c(=O)n(C)c(=O)n(-c2cc(Oc3cc(Cl)c(Cl)cc3Cl)ccc2[N+](=O)[O-])c1=O` [Compound 31, Methyl tetrahydro-3-methyl-5-[2-nitro-5-(2,4,5-trichlorophenoxy)phenyl]-2,4,6-trioxo-s-triazine-1(2H)-acetate], the “Herbicidal effect rating, ORYSAT” value in data set [1] (0.063 kg/ha) is recorded as 0.0; in data set [1] (0.125 kg/ha), 0.0; in data set [1] (0.250 kg/ha), 1.0; in data set [1] (0.500 kg/ha) it was 2.0. Further, the “Herbicidal effect rating, MOOVA” value in data set […], PRESL. (0.063 kg/ha) was 0.0; in data set […], PRESL. (0.125 kg/ha), 0.0. The CHEAL rating stood at 7.0 in the data set with CHENOPODIUM ALBUM, L. [2] (Rate 0.125 kg/ha); 7.0 in the data set with CHENOPODIUM ALBUM, L. [2] (Rate 0.250 kg/ha); 7.0 in the data set on CHENOPODIUM ALBUM, L. [2] (Rate 0.500 kg/ha). Also, the “Herbicidal effect rating, CYPSE” value in data set [3] (0.063 kg/ha), in data set [3] (0.125 kg/ha), in data set [3] (0.250 kg/ha) and in data set [3] (0.500 kg/ha) was 0.0 in each case. The “Herbicidal effect rating, SAGPY” value with SAGITTARIA PYGMAEA, L. (0.063 kg/ha) came out at 0.0; with SAGITTARIA PYGMAEA, L. (0.125 kg/ha) it was 0.0; in the data set on SAGITTARIA PYGMAEA, L. (0.250 kg/ha), 0.0; with SAGITTARIA PYGMAEA, L. (0.500 kg/ha) it was 0.0. The ORYSAT herbicidal rating in data set [4] (Rate 0.125 kg/ha), in data set [4] (Rate 0.250 kg/ha) and in data set [4] (Rate 0.500 kg/ha) was 3.0 each time. Further, the CHEAL herbicidal rating in the data set with CHENOPODIUM ALBUM, L. [5] (Rate 0.125 kg/ha) is on record as 9.0; in the data set with CHENOPODIUM ALBUM, L. [5] (Rate 0.250 kg/ha), 9.0; with CHENOPODIUM ALBUM, L. [5] (Rate 0.500 kg/ha) it was 9.0.
